# Calls of active or inactive are those of the source. No cut-off for these calls is given here.
# What was measured:
# [1] = test system: Klebsiella pneumoniae; test: Inhibition of Metallo-beta-lactamase IMP-28 in Klebsiella pneumoniae clinical isolate assessed as MIC for meropenem antibacterial activity at 128 ug/ml (reference value: 4 ug/ml); conditions: dose 128.0 µg/ml
# [2] = test system: Enterobacter cloacae; test: Inhibition of Metallo-beta-lactamase IMP-1 in Enterobacter cloacae clinical isolate assessed as MIC for meropenem antibacterial activity at 64 ug/ml (reference value: 32 ug/ml); conditions: dose 64.0 µg/ml
# [3] = test system: Klebsiella pneumoniae; test: Inhibition of Metallo-beta-lactamase IMP-28 in Klebsiella pneumoniae clinical isolate assessed as fold reduction in meropenem MIC at 64 ug/ml; conditions: dose 64.0 µg/ml
# [4] = test system: Escherichia coli; test: Inhibition of Metallo-beta-lactamase VIM-2 in Escherichia coli clinical isolate assessed as fold reduction in meropenem MIC at 32 ug/ml; conditions: dose 32.0 µg/ml
# [5] = test system: Klebsiella pneumoniae; test: Substrate activity at Klebsiella pneumoniae beta-lactamase IMP-28 assessed as compound hydrolysis by measuring Km by Michaelis-Menten analysis
# [6] = test system: Escherichia coli; test: Inhibition of Metallo-beta-lactamase NDM-1 in Escherichia coli clinical isolate assessed as MIC for meropenem antibacterial activity at 128 ug/ml (reference value: 32 ug/ml); conditions: dose 128.0 µg/ml
# [7] = test system: Klebsiella pneumoniae; test: Inhibition of Klebsiella pneumoniae beta Metallo-beta-lactamase IMP-28
# [8] = test system: Escherichia coli; test: Substrate activity at Escherichia coli beta-lactamase NDM-1 assessed as compound hydrolysis by measuring Km by Michaelis-Menten analysis
# [9] = test system: Klebsiella pneumoniae; test: Inhibition of Metallo-beta-lactamase IMP-28 in Klebsiella pneumoniae clinical isolate assessed as MIC for meropenem antibacterial activity at 32 ug/ml (reference value: 4 ug/ml); conditions: dose 32.0 µg/ml
# [10] = test system: Escherichia coli; test: Inhibition of Metallo-beta-lactamase NDM-1 in Escherichia coli clinical isolate assessed as fold reduction in meropenem MIC at 64 ug/ml; conditions: dose 64.0 µg/ml
# [11] = test system: Enterobacter cloacae; test: Inhibition of Enterobacter cloacae Metallo-beta-lactamase IMP-1
# [12] = Stability of the compound in Muller hinton broth assessed compound remaining measured after 15 hrs by HPLC analysis; assay type: physicochemical; conditions: Mueller Hinton broth, read-out: Stability
# [13] = test system: Escherichia coli; test: Inhibition of Metallo-beta-lactamase NDM-1 in Escherichia coli clinical isolate assessed as fold reduction in meropenem MIC at 128 ug/ml; conditions: dose 128.0 µg/ml
# [14] = test system: Escherichia coli; test: Inhibition of Metallo-beta-lactamase VIM-2 in Escherichia coli clinical isolate assessed as MIC for meropenem antibacterial activity at 64 ug/ml (reference value: 8 ug/ml); conditions: dose 64.0 µg/ml
# [15] = test system: Escherichia coli; test: Substrate activity at Escherichia coli beta-lactamase VIM-2 assessed as compound hydrolysis by measuring Km by Michaelis-Menten analysis
# [16] = test system: Escherichia coli; test: Inhibition of Metallo-beta-lactamase VIM-2 in Escherichia coli clinical isolate assessed as MIC for meropenem antibacterial activity at 128 ug/ml (reference value: 8 ug/ml); conditions: dose 128.0 µg/ml
# [17] = test system: Enterobacter cloacae; test: Inhibition of Metallo-beta-lactamase IMP-1 in Enterobacter cloacae clinical isolate assessed as MIC for meropenem antibacterial activity at 128 ug/ml (reference value: 32 ug/ml); conditions: dose 128.0 µg/ml
# [18] = Stability of the compound assessed as Klebsiella pneumoniae beta-lactamase IMP-28-mediated degradation by measuring appearance of vinyl protons release measured after 120 mins by NMR spectra; assay type: ADME; conditions: 2 h
# [19] = test system: Escherichia coli; test: Inhibition of Metallo-beta-lactamase VIM-2 in Escherichia coli clinical isolate assessed as fold reduction in meropenem MIC at 64 ug/ml; conditions: dose 64.0 µg/ml
# [20] = Inhibition of Klebsiella pneumoniae beta-lactamase IMP-28 using nitrocefin chromogenic substrate measured after 15 to 60 min at 25 degC by microplate reader
# [21] = Metabolic stability of the compound assessed as Klebsiella pneumoniae beta-lactamase IMP-28-mediated metabolism by (2R)-2-((R)-carboxy(2-phenylacetamido)methyl)-5-(((R)-carboxy(phenyl)methylthio)methyl)-5,6-dihydro-2H-1,3-thiazine-4-carboxylic acid by LC-MS analysis; assay type: ADME
# [22] = test system: Escherichia coli; test: Substrate activity at Escherichia coli beta-lactamase VIM-2 assessed as compound hydrolysis by measuring Kcat/Km by Michaelis-Menten analysis
# [23] = test system: Klebsiella pneumoniae; test: Substrate activity at Klebsiella pneumoniae beta-lactamase IMP-28 assessed as compound hydrolysis by measuring Kcat by Michaelis-Menten analysis
# [24] = test system: Klebsiella pneumoniae; test: Antibacterial activity against beta-lactamase IMP-28 producing Klebsiella pneumoniae clinical isolate measured upto 128 ug/ml; assay type: functional, organism-based
# [25] = test system: Escherichia coli; test: Inhibition of Metallo-beta-lactamase NDM-1 in Escherichia coli clinical isolate assessed as fold reduction in meropenem MIC at 32 ug/ml; conditions: dose 32.0 µg/ml
# [26] = test system: Enterobacter cloacae; test: Inhibition of Metallo-beta-lactamase IMP-1 in Enterobacter cloacae clinical isolate assessed as fold reduction in meropenem MIC at 32 ug/ml; conditions: dose 32.0 µg/ml
# [27] = test system: Enterobacter cloacae; test: Antibacterial activity against beta-lactamase IMP1 producing Enterobacter cloacae clinical isolate measured upto 128 ug/ml; assay type: functional, organism-based
# [28] = test system: Klebsiella pneumoniae; test: Inhibition of Metallo-beta-lactamase IMP-28 in Klebsiella pneumoniae clinical isolate assessed as fold reduction in meropenem MIC at 128 ug/ml; conditions: dose 128.0 µg/ml
# [29] = test system: Escherichia coli; test: Inhibition of Metallo-beta-lactamase NDM-1 in Escherichia coli clinical isolate assessed as MIC for meropenem antibacterial activity at 64 ug/ml (reference value: 32 ug/ml); conditions: dose 64.0 µg/ml
# [30] = test system: Escherichia coli; test: Antibacterial activity against beta-lactamase VIM2 producing Escherichia coli clinical isolate measured upto 128 ug/ml; assay type: functional, organism-based
# [31] = test system: Escherichia coli; test: Substrate activity at Escherichia coli beta-lactamase VIM-2 assessed as compound hydrolysis by measuring Kcat by Michaelis-Menten analysis
# [32] = test system: Enterobacter cloacae; test: Inhibition of Metallo-beta-lactamase IMP-1 in Enterobacter cloacae clinical isolate assessed as fold reduction in meropenem MIC at 128 ug/ml; conditions: dose 128.0 µg/ml
# [33] = test system: Escherichia coli; test: Substrate activity at Escherichia coli beta-lactamase NDM-1 assessed as compound hydrolysis by measuring kcat/km by Michaelis-Menten analysis
# [34] = test system: Enterobacter cloacae; test: Inhibition of Metallo-beta-lactamase IMP-1 in Enterobacter cloacae clinical isolate assessed as MIC for meropenem antibacterial activity at 32 ug/ml (reference value: 32 ug/ml); conditions: dose 32.0 µg/ml
# [35] = test system: Escherichia coli; test: Inhibition of Metallo-beta-lactamase VIM-2 in Escherichia coli clinical isolate assessed as MIC for meropenem antibacterial activity at 32 ug/ml (reference value: 8 ug/ml); conditions: dose 32.0 µg/ml
# [36] = Inhibition of Enterobacter cloacae IMP-1 using nitrocefin chromogenic substrate measured after 15 to 60 min at 25 degC by microplate reader
# [37] = Inhibition of Escherichia coli beta-lactamase VIM-2 using nitrocefin chromogenic substrate measured after 15 to 60 min at 25 degC by microplate reader
# [38] = test system: Escherichia coli; test: Inhibition of Metallo-beta-lactamase VIM-2 in Escherichia coli clinical isolate assessed as fold reduction in meropenem MIC at 128 ug/ml; conditions: dose 128.0 µg/ml
# [39] = test system: Klebsiella pneumoniae; test: Inhibition of Metallo-beta-lactamase IMP-28 in Klebsiella pneumoniae clinical isolate assessed as MIC for meropenem antibacterial activity at 64 ug/ml (reference value: 4 ug/ml); conditions: dose 64.0 µg/ml
# [40] = test system: Escherichia coli; test: Substrate activity at Escherichia coli beta-lactamase NDM-1 assessed as compound hydrolysis by measuring Kcat by Michaelis-Menten analysis
# [41] = test system: Escherichia coli; test: Inhibition of Metallo-beta-lactamase NDM-1 in Escherichia coli clinical isolate assessed as MIC for meropenem antibacterial activity at 32 ug/ml (reference value: 32 ug/ml); conditions: dose 32.0 µg/ml
# [42] = test system: Klebsiella pneumoniae; test: Inhibition of Metallo-beta-lactamase IMP-28 in Klebsiella pneumoniae clinical isolate assessed as fold reduction in meropenem MIC at 32 ug/ml; conditions: dose 32.0 µg/ml
# [43] = test system: Enterobacter cloacae; test: Inhibition of Metallo-beta-lactamase IMP-1 in Enterobacter cloacae clinical isolate assessed as fold reduction in meropenem MIC at 64 ug/ml; conditions: dose 64.0 µg/ml
# [44] = test system: Escherichia coli; test: Antibacterial activity against beta-lactamase NDM1 producing Escherichia coli clinical isolate measured upto 128 ug/ml; assay type: functional, organism-based
# [45] = Inhibition of Escherichia coli beta-lactamase NDM-1 using nitrocefin chromogenic substrate measured after 15 to 60 min at 25 degC by microplate reader
# [46] = test system: Klebsiella pneumoniae; test: Substrate activity at Klebsiella pneumoniae beta-lactamase IMP-28 assessed as compound hydrolysis by measuring Kcat/Km by Michaelis-Menten analysis
smiles,measurement,setting,value
O=C(Cc1ccccc1)N[C@@H]1C(=O)N2C(C(=O)O)=C(CS[C@H](Cc3ccccc3)C(=O)O)CS[C@H]12,MIC,[1],< 0.063 µg/mL
same,MIC,[2],1 µg/mL
same,fold change (FC),[3],> 64
same,fold change (FC),[4],2
same,Km,[5],249 µM
same,MIC,[6],8 µg/mL
same,inhibition,[7],Active
same,Km,[8],21.2 µM
same,MIC,[9],< 0.063 µg/mL
same,fold change (FC),[10],4
same,inhibition,[11],Active
same,remaining at 15 h,[12],> 95%
same,fold change (FC),[13],4
same,MIC,[14],4 µg/mL
same,Km,[15],4.3 µM
same,MIC,[16],2 µg/mL
same,MIC,[17],0.5 µg/mL
same,Stability,[18],Stable
same,fold change (FC),[19],2
same,IC50,[20],1.1 µM
same,Drug metabolism,[21],Metabolite_Detected
same,kcat/Km,[22],546000 M⁻¹ s⁻¹
same,kcat,[23],2.83 s⁻¹
same,Activity,[24],inactive
same,fold change (FC),[25],2
same,fold change (FC),[26],32
same,Activity,[27],inactive
same,fold change (FC),[28],> 64
same,MIC,[29],8 µg/mL
same,Activity,[30],inactive
same,kcat,[31],2.35 s⁻¹
same,fold change (FC),[32],64
same,kcat/Km,[33],821000 M⁻¹ s⁻¹
same,MIC,[34],1 µg/mL
same,MIC,[35],4 µg/mL
same,IC50,[36],4.7 µM
same,IC50,[37],16 µM
same,fold change (FC),[38],4
same,MIC,[39],< 0.063 µg/mL
same,kcat,[40],17.4 s⁻¹
same,MIC,[41],16 µg/mL
same,fold change (FC),[42],> 64
same,fold change (FC),[43],32
same,Activity,[44],inactive
same,IC50,[45],94 µM
same,kcat/Km,[46],11000 M⁻¹ s⁻¹
